Assay results published in patent publication US5310757A, “3,3,5-trimethylcyclohexyl 2-methylpropionate derivatives, their method of preparation and therapeutic compositions in which they are present” (Panmedica, priority 1989, dated 1994).

Assays:
[1] = test system: hyperlipidaemia caused by TRITON 1339; assay: test for the hyperlipidaemia caused by TRITON 1339; assay type: in vivo; settings: rats, Triton test after oral administration for six days, 0.5 millimol per kilogram; for HDL cholesterol: Control 0.7 ± 0.1, Triton 0.8 ± 0.1; for Triglycerides: Control 1 ± 0.3, Triton 10 ± 7; for Total cholesterol: Control 2 ± 0.15, Triton 9 ± 3; for Total lipids: Control 3.5 ± 0.4, Triton 20 ± 10
Method: The Table below summarizes the results of the pharmacological studies carried out especially by means of the test for the hyperlipidaemia caused by TRITON 1339. The experimental protocol was that published by J. C. […] et al. (Gaz. Med. France, 3rd inter. coll. 1982, Dijon, 18-22). The tests are performed on groups of 7 rats weighing from 280 to 290 g. The Triton test is carried out after oral administration for six days at a rate of 0.5 millimol per kilogram of body weight. The following lipid parameters are measured: total cholesterol, triglycerides, total lipids and HDL cholesterol.

HMG-CoA red. = HMG-CoA red. activity "ex vivo" in liver microsomes after chronic intraperitoneal administration to rats; parameters: Mevalonate formed: unit not given here; settings: 50 mg/kg for 6 days; for Mevalonate formed: Control 17; for % inhibition: inhibition of HMG-CoA red. activity, Control 0
Method: The inhibitory activity of the products according to the present invention was determined by the method of Kuroda et al. (Biochemica et Biophysica Acta, vol. 486, pp. 70-81 (1977)), which is a modification of the method of Shapiro et al. (Analytical Biochemistry, vol. 31, pp. 383-390 (1969)). […] The doses administered were 50 mg/kg for 6 days; six rats were used in each series; they are sacrificed without anaesthesia and the liver microsomes are isolated for the assay, which is performed according to the above-mentioned protocol.

[2] = target: T1, 3-hydroxy-3-methylglutaryl-CoA reductase (Rattus norvegicus, UniProt P51639); assay: inhibition of 3-hydroxy-3-methylglutaryl-CoA reductase activity (method of Kuroda et al.); assay type: biochemical; settings: concentration for 50% inhibition of 3-hydroxy-3-methylglutaryl-CoA reductase activity
T1 construct: from tissue
T1 sequence (P51639 1-887): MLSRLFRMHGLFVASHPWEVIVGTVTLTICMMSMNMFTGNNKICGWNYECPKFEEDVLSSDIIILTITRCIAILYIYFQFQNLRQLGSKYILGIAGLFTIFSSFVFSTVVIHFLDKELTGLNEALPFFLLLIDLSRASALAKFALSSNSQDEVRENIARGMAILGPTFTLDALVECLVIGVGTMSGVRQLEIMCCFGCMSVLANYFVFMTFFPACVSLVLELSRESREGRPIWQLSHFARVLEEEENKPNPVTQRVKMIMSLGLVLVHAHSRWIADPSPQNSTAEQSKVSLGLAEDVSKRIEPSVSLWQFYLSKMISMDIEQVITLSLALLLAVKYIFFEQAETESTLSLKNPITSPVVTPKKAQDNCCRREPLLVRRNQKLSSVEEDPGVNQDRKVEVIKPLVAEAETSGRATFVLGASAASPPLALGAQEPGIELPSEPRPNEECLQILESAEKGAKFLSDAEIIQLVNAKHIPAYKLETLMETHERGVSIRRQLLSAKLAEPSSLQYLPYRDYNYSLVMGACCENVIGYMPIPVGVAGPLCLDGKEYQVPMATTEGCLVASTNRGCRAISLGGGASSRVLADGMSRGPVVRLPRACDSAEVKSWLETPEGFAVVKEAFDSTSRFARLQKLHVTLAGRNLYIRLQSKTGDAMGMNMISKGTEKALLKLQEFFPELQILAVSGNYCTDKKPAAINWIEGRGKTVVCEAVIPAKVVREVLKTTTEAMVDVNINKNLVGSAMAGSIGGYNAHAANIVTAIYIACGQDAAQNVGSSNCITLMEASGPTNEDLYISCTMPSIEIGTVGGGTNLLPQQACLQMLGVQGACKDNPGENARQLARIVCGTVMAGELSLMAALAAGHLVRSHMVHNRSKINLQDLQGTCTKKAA
Method: The biosynthesis of cholesterol in an isolated enzymatic system or in a cell culture from organs removed from experimental animals is inhibited by limiting the activity of the enzyme 3-hydroxy-3-methylglutaryl-CoA reductase.
The inhibitory activity of the products according to the present invention was determined by the method of Kuroda et al. (Biochemica et Biophysica Acta, vol. 486, pp. 70-81 (1977)), which is a modification of the method of Shapiro et al. (Analytical Biochemistry, vol. 31, pp. 383-390 (1969)). The results are summarized in Table II, where IC50 is the concentration of product in the experimental medium which is necessary to achieve a 50% inhibition of the 3-hydroxy-3-methylglutaryl-CoA reductase activity, expressed in nanomol.

| SMILES | HDL cholesterol [1] | Triglycerides [1] | Total cholesterol [1] | Total lipids [1] | Mevalonate formed (HMG-CoA red.) | % inhibition (HMG-CoA red.) | IC50 [2] |
| --- | --- | --- | --- | --- | --- | --- | --- |
| C[C@H]1C[C@H](OC(=O)C(C)(C)Oc2ccc(C(=O)c3ccc(Cl)cc3)cc2)CC(C)(C)C1 (relative stereo) [Example 1, (TRANS) 3,3,5-TRIMETHYLCYCLOHEXYL 2-(4-(4-CHLOROBENZOYL)PHENOXY)-2-METHYLPROPIONATE] | 1.5 ± 0.4 mmol/L | 0.8 ± 0.1 mmol/L | 3.5 ± 1.4 mmol/L | 3.6 ± 0.5 g/L | 4.44 | 74% |  |
| C[C@H]1C[C@H](OC(=O)C(C)(C)Oc2ccc(CCNC(=O)c3ccc(Cl)cc3)cc2)CC(C)(C)C1 (relative stereo) [Example 3, (TRANS) 3,3,5-TRIMETHYLCYCLOHEXYL 2-(4-(2-(4-CHLOROBENZAMIDO)ETHYL)PHENOXY)-2-METHYLPROPIONATE] | 1.6 ± 0.4 mmol/L | 1.2 ± 0.4 mmol/L | 1.2 ± 0.7 mmol/L | 3.8 ± 0.5 g/L |  |  | 39 nM |
| C[C@@H]1C[C@H](OC(=O)C(C)(C)Oc2ccc(CCNC(=O)c3ccc(Cl)cc3)cc2)CC(C)(C)C1 (relative stereo) [Example 4, (CIS) 3,3,5-TRIMETHYLCYCLOHEXYL 2-(4-(2-(4-CHLOROBENZAMIDO)ETHYL)PHENOXY)-2-METHYLPROPIONATE] | 2.2 ± 0.3 mmol/L | 2.5 ± 0.5 mmol/L | 2.6 ± 0.3 mmol/L | 4.8 ± 0.7 g/L |  |  | 25.6 nM |
| Cc1ccc(C)c(OCCCC(C)(C)C(=O)O[C@H]2C[C@H](C)CC(C)(C)C2)c1 (relative stereo) [Example 6, (TRANS) 3,3,5-TRIMETHYLCYCLOHEXYL 2-(3-(2,5-DIMETHYLPHENOXY)PROPYL)-2-METHYLPROPIONATE] | 0.9 ± 0.3 mmol/L | 1.7 ± 0.3 mmol/L | 2.0 ± 0.2 mmol/L | 8.0 ± 3 g/L | 6.01 | 65% |  |
| C[C@@H]1C[C@H](OC(=O)C(C)(C)Oc2ccc(-c3ccccc3)cc2)CC(C)(C)C1 (relative stereo) [Example 8, (CIS) 3,3,5-TRIMETHYLCYCLOHEXYL 2-(4-PHENYLPHENOXY)-2-METHYLPROPIONATE] | 1.1 ± 0.2 mmol/L | 6.0 ± 4 mmol/L | 3.0 ± 0.2 mmol/L | 3.6 ± 0.2 g/L |  |  |  |
| CCC(=O)c1ccc(OC(C)(C)C(=O)O[C@H]2C[C@H](C)CC(C)(C)C2)cc1 (relative stereo) [Example 9, (TRANS) 3,3,5-TRIMETHYLCYCLOHEXYL 2-(4-PROPIONYLPHENOXY)-2-METHYLPROPIONATE] | 2.0 ± 0.6 mmol/L | 1.6 ± 0.3 mmol/L | 2.5 ± 0.6 mmol/L | 5.0 ± 0.2 g/L |  |  |  |
| CCC(=O)c1ccc(OC(C)(C)C(=O)O[C@H]2C[C@@H](C)CC(C)(C)C2)cc1 (relative stereo) [Example 10, (CIS) 3,3,5-TRIMETHYLCYCLOHEXYL 2-(4-PROPIONYLPHENOXY)-2-METHYLPROPIONATE] |  |  |  |  |  |  | 37.6 nM |
| CC(=O)c1ccc(OC(C)(C)C(=O)O[C@H]2C[C@H](C)CC(C)(C)C2)c(Cl)c1 (relative stereo) [Example 11, (TRANS) 3,3,5-TRIMETHYLCYCLOHEXYL 2-(4-ACETYL-2-CHLOROPHENOXY)-2-METHYLPROPIONATE] | 1.0 ± 0.1 mmol/L | 1.0 ± 0.1 mmol/L | 1.8 ± 0.4 mmol/L | 11 ± 5 g/L |  |  |  |
| CC(=O)c1ccc(OC(C)(C)C(=O)O[C@H]2C[C@@H](C)CC(C)(C)C2)c(Cl)c1 (relative stereo) [Example 12, (CIS) 3,3,5-TRIMETHYLCYCLOHEXYL 2-(4-ACETYL-2-CHLOROPHENOXY)-2-METHYLPROPIONATE] |  |  |  |  |  |  | 21.9 nM |
| CC(=O)c1cccc(OC(C)(C)C(=O)O[C@H]2C[C@H](C)CC(C)(C)C2)c1 (relative stereo) [Example 13, (TRANS) 3,3,5-TRIMETHYLCYCLOHEXYL 2-(3-ACETYLPHENOXY)-2-METHYLPROPIONATE] |  |  |  |  |  |  | 35.7 nM |
| CC(=O)c1cccc(OC(C)(C)C(=O)O[C@H]2C[C@@H](C)CC(C)(C)C2)c1 (relative stereo) [Example 14, (CIS) 3,3,5-TRIMETHYLCYCLOHEXYL 2-(3-ACETYLPHENOXY)-2-METHYLPROPIONATE] | 2.1 ± 0.1 mmol/L | 6.0 ± 3.0 mmol/L | 3.0 ± 0.3 mmol/L | 4.8 ± 0.6 g/L |  |  |  |
| CC(=O)c1ccc(OC(C)(C)C(=O)O[C@@H]2C[C@@H](C)CC(C)(C)C2)cc1 (relative stereo) [Example 15, (TRAMS) 3,3,5-TRIMETHYLCYCLOHEXYL 2-(4-ACETYLPHENOXY)-2-METHYLPROPIONATE] | 1.7 ± 0.1 mmol/L | 1.7 ± 1.2 mmol/L | 2.8 ± 0.2 mmol/L | 3.0 ± 0.3 g/L |  |  |  |
| CC(=O)c1ccc(OC(C)(C)C(=O)O[C@H]2C[C@@H](C)CC(C)(C)C2)cc1 (relative stereo) [Example 16, (CIS) 3,3,5-TRIMETHYLCYCLOHEXYL 2-(4-ACETYLPHENOXY)-2-METHYLPROPIONATE] |  |  |  |  |  |  | 45.9 nM |
| C[C@H]1C[C@H](OC(=O)C(C)(C)Oc2ccc(C(=O)Cc3ccccc3)cc2)CC(C)(C)C1 (relative stereo) [Example 17, (TRANS) 3,3,5-TRIMETHYLCYCLOHEXYL 2-(4-PHENYLACETYLPHENOXY)-2-METHYLPROPIONATE] |  |  |  |  | 8.66 | 50% |  |
| C[C@@H]1C[C@H](OC(=O)C(C)(C)Oc2ccc(C(=O)Cc3ccccc3)cc2)CC(C)(C)C1 (relative stereo) [Example 18, (CIS) 3,3,5-TRIMETHYLCYCLOHEXYL 2-(4-PHENYLACETYLPHENOXY)-2-METHYLPROPIONATE] |  |  |  |  |  |  | 32.9 nM |
| C[C@H]1C[C@H](OC(=O)C(C)(C)CCCCOc2ccccc2)CC(C)(C)C1 (relative stereo) [Example 19, (TRANS) 3,3,5-TRIMETHYLCYCLOHEXYL 2-(4-PHENOXYBUTYL)- 2-METHYLPROPIONATE] |  |  |  |  | 5.2 | 70% |  |
| C[C@@H]1C[C@H](OC(=O)C(C)(C)CCCCOc2ccccc2)CC(C)(C)C1 (relative stereo) [Example 20, (CIS) 3,3,5-TRIMETHYLCYCLOHEXYL 2-(4-PHENOXYBUTYL)-2-METHYLPROPIONATE] |  |  |  |  |  |  | 40.5 nM |
| Cc1ccc(OCCCCC(C)(C)C(=O)O[C@H]2C[C@@H](C)CC(C)(C)C2)c(C)c1 (relative stereo) [Example 21, (CIS) 3,3,5-TRIMETHYLCYCLOHEXYL 2-(4-(2,4-DIMETHYLPHENOXY)BUTYL)-2-METHYLPROPIONATE] |  |  |  |  | 3.8 | 78% |  |
| Cc1cc(C)cc(OCCCCC(C)(C)C(=O)O[C@H]2C[C@@H](C)CC(C)(C)C2)c1 (relative stereo) [Example 22, (CIS) 3,3,5-TRIMETHYLCYCLOHEXYL 2-(4-(3,5-DIMETHYLPHENOXY)BUTYL)-2-METHYLPROPIONATE] |  |  |  |  |  |  | 30.2 nM |
| CC(C)OC(=O)C(C)(C)Oc1ccc(C(=O)c2ccc(Cl)cc2)cc1 [Fenofibrate, isopropyl 4-(4-chlorobenzoyl)phenoxyisobutyrate, reference compound] |  |  |  |  | 4.16 |  |  |
